The values that follow are results of earlier work, collected in patent EP0433909A2, “Formulation” (CIBA-GEIGY AG, priority 1989, dated 1991).

Molecules are shown by their SMILES. Where only a bound is given, the exact number is not on record here.

The conditions of the data set: for solubilities: in water, K. Wellinga et al., J. Agr. Food Chem. Vol 21, No.3 (1973), p.350.

For `O=C(NC(=O)c1c(Cl)cccc1Cl)Nc1ccc(Cl)cc1` [1-(4-chlorophenyl)-3-(2,6-dichlorobenzoyl)-urea], the solubilities is recorded as at most 1 ppm.
In the case of `O=C(NC(=O)c1c(F)cccc1F)Nc1ccc(Cl)cc1` [1-(4-chlorophenyl)-3-(2,6-difluorobenzoyl)urea], under “The Merck Index, 9th Ed. (1976), p. 416”, the solubility in water result is reported as “about 0.3 ppm”.
Regarding `O=C(NC(=O)c1c(Cl)cccc1Cl)Nc1ccc(Cl)c(Cl)c1` [1-(2,6-dichlorobenzoyl)-3-(3,4-dichlorophenyl)-urea], the solubilities is at most 1 ppm.
